Data on 2 compounds can be found in ChEMBL document CHEMBL3132761, “Construction of phenoxazine rings containing nitro and sulfonic acid groups leading to phenoxazine-3-sulfonamide derivatives: their evaluation as novel and potential insulin secretagogues” (Medchemcomm, 2014).

Assay [1] concerns Rattus norvegicus. In words: Antidiabetic activity in streptozotocin-nicotinamide-induced diabetic model of Wistar albino rat assessed as granulated pancreatic islets with prominent hyperplasticity at 10 mg/kg, po administered for 14 days measured on day 14 relative to control. Format: functional, organism-based. On the set-up: dose 10 mg/kg.
The subject of assay [2] is Rattus norvegicus. The experiment in a line: Antidiabetic activity in Wistar albino rat assessed as reversal of diabetic-induced muscle wasting by measuring increase in body weight at 10 mg/kg, po administered for 14 days measured on day 14 relative to control. Format: functional.
Assay [3] relates to Rattus norvegicus. The experiment in a line: Antidiabetic activity in Wistar albino rat assessed as reversal of diabetic-induced SGPT level in liver at 10 mg/kg, po administered for 14 days measured on day 14 relative to control. Format: functional.
The subject of assay [4] is Rattus norvegicus. The experiment in a line: Antidiabetic activity in Wistar albino rat assessed as reversal of diabetic-induced SGOT level in liver at 10 mg/kg, po administered for 14 days measured on day 14 relative to control. The assay is classed as functional.
Assay [5] has as its system Rattus norvegicus. In words: Hypolipidemic activity in Wistar albino rat assessed as reduction of serum triglyceride level at 10 mg/kg, po administered for 14 days measured on day 14 after 1 to 8 hrs relative to control. The assay is classed as functional.
The test system of assay [6] is Rattus norvegicus. In words: Hypolipidemic activity in Wistar albino rat assessed as reduction of total cholesterol level at 10 mg/kg, po administered for 14 days measured on day 14 after 1 to 8 hrs relative to control. Format: functional.
Assay [7] deals with Rattus norvegicus. In words: Antidiabetic activity in streptozotocin-nicotinamide-induced diabetic model of Wistar albino rat assessed as reduction of blood glucose level at 10 mg/kg, po administered for 14 days measured on day 14 after 1 to 8 hrs relative to control. Format: functional.
In assay [8] the test system is Rattus norvegicus. In words: Antidiabetic activity in streptozotocin-nicotinamide-induced diabetic model of Wistar albino rat assessed as reduction of blood glucose level at 10 mg/kg, po administered for 14 days measured on day 7 after 1 to 8 hrs relative to control. Format: functional.
In assay [9] the test system is Rattus norvegicus. In words: Antidiabetic activity in streptozotocin-nicotinamide-induced diabetic model of Wistar albino rat assessed as reduction of blood glucose level at 10 mg/kg, po after 8 hrs relative to control. Format: functional.
The subject of assay [10] is Rattus norvegicus. The experiment in a line: Antidiabetic activity in streptozotocin-nicotinamide-induced diabetic model of Wistar albino rat assessed as reduction of blood glucose level at 10 mg/kg, po after 6 hrs relative to control. Format: functional.
For assay [11], the system named is Rattus norvegicus. In words: Antidiabetic activity in streptozotocin-nicotinamide-induced diabetic model of Wistar albino rat assessed as reduction of blood glucose level at 10 mg/kg, po after 4 hrs relative to control. Format: functional.
The subject of assay [12] is Rattus norvegicus. In words: Antidiabetic activity in streptozotocin-nicotinamide-induced diabetic model of Wistar albino rat assessed as reduction of blood glucose level at 10 mg/kg, po after 2 hrs relative to control. Format: functional.
Assay [13] deals with Rattus norvegicus. The experiment in a line: Antidiabetic activity in streptozotocin-nicotinamide-induced diabetic model of Wistar albino rat assessed as reduction of blood glucose level at 10 mg/kg, po after 1 hr relative to control. The assay is classed as functional.
The test system of assay [14] is Rattus norvegicus. The experiment in a line: Hypoglycemic activity in over night fasted Wistar albino rat assessed as reduction of blood glucose level at 10 mg/kg, po administered 30 mins before glucose challenge measured after 120 mins by intraperitoneal glucose tolerance test (reference value: 101.07 +/- 8.98 mg/dl). Format: functional.
Assay [15] relates to Rattus norvegicus. In words: Hypoglycemic activity in over night fasted Wistar albino rat assessed as reduction of blood glucose level at 10 mg/kg, po administered 30 mins before glucose challenge measured after 90 mins by intraperitoneal glucose tolerance test (reference value: 94.44 +/- 6.99 mg/dl). The assay is classed as functional.
Assay [16] has as its system Rattus norvegicus. In words: Hypoglycemic activity in over night fasted Wistar albino rat assessed as reduction of blood glucose level at 10 mg/kg, po administered 30 mins before glucose challenge measured after 60 mins by intraperitoneal glucose tolerance test (reference value: 106.07 +/- 13.98 mg/dl). The assay is classed as functional.
The test system of assay [17] is Rattus norvegicus. In words: Hypoglycemic activity in over night fasted Wistar albino rat assessed as reduction of blood glucose level at 10 mg/kg, po administered 30 mins before glucose challenge measured after 30 mins by intraperitoneal glucose tolerance test (reference value: 109.28 +/- 20.53 mg/dl). The assay is classed as functional.
The test system of assay [18] is Rattus norvegicus. In words: Hypoglycemic activity in 18 hrs fasted Wistar albino rat assessed as reduction of blood glucose level at 10 mg/kg, po after 6 hrs (reference value: 101.01 +/- 1.60 mg/dl). The assay is classed as functional.
Assay [19] deals with Rattus norvegicus. The experiment in a line: Hypoglycemic activity in 18 hrs fasted Wistar albino rat assessed as reduction of blood glucose level at 10 mg/kg, po after 4 hrs (reference value: 97.13 +/- 2.89 mg/dl). Format: functional.
Assay [20] has as its system Rattus norvegicus. The experiment in a line: Hypoglycemic activity in 18 hrs fasted Wistar albino rat assessed as reduction of blood glucose level at 10 mg/kg, po after 2 hrs (reference value: 101.03 +/- 1.93 mg/dl). The assay is classed as functional.
Assay [21] concerns Hepatocyte. In words: Cytotoxicity against rat primary hepatocytes after 16 hrs. Format: cell-based.
Assay [22] has as its system Hepatocyte. The experiment in a line: Cytotoxicity against rat primary hepatocytes after 6 hrs. The assay is classed as cell-based.
Assay [23] has as its target T1, Peroxisome proliferator-activated receptor gamma (Homo sapiens) (UniProt P37231).
T1 sequence (whole entry): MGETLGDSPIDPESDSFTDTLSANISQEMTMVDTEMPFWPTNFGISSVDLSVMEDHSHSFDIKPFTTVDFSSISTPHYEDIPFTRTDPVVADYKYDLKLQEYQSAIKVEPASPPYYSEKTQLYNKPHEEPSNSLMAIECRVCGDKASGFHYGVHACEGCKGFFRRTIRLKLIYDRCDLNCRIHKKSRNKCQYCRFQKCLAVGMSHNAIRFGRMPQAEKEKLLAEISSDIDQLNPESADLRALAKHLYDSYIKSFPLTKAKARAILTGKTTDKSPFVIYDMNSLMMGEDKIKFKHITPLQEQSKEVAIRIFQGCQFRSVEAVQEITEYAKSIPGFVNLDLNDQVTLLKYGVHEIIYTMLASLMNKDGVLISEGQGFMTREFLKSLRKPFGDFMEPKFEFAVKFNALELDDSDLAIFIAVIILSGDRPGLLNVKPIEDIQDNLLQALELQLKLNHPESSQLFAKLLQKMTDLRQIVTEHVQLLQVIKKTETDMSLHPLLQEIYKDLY
In words: Agonist activity at human GAL4-fused PPARgamma LBD expressed in HEK293T cells co-expressing DBD at 1 uM by luciferase based transactivation assay relative to control. Format: cell-based. The settings on record: HEK-293T.

pIC50: −log10 of the molar value. Calls of active or inactive are those of the source. The rule behind the calls is not given here.

Turning to `COc1ccc(Cl)cc1C(=O)NCCc1ccc(S(=O)(=O)NC(=O)NC2CCCCC2)cc1` [GLYBURIDE], the outcome in assay [1] was Active. For the same compound, the Activity was 244 g in assay [2]; 42 U/dl in assay [3]; 45.8 U/dl in assay [4]; 61 mg/dL in assay [5]; 57.8 mg/dL in assay [6]; 88.3 mg/dL in assay [7]. For the same compound, the Activity turned out to be 93.3 mg/dL in assay [8]; 151.9 mg/dL in [9]; 127.2 mg/dL in [10]; 107.5 mg/dL in assay [11]; 101.9 mg/dL in [12]; 147.2 mg/dL in assay [13]. The Activity was found to be 91.78 mg/dL in [14]; 77.5 mg/dL in assay [15]; 89 mg/dL in assay [16]; 107.85 mg/dL in assay [17]; 69.01 mg/dL in assay [18]; 63.73 mg/dL in assay [19]. Further, the Activity in assay [20] amounted to 90.2 mg/dL.
`O=[N+]([O-])c1cc(S(=O)(=O)Nc2ccc(O)cc2)cc2c1Nc1ccccc1O2`: the pIC50 – broadly, −log10 of the IC50, conventionally taken in molar units – in [21] is 3.56; in assay [22], 3.46. The fold change (FC) in assay [23] was 15.5. The outcome in assay [1] was Active. For the same compound, the Activity in assay [2] came out at 242 g; in assay [3], 44.8 U/dl; in assay [4], 47.2 U/dl; in assay [5], 63.2 mg/dL; in assay [6] it was 59.2 mg/dL; in assay [7], 145.6 mg/dL. For the same compound, the Activity is 165.8 mg/dL in [8]; 161.4 mg/dL in [9]; 143.3 mg/dL in assay [10]; 131.4 mg/dL in [11]; 116.4 mg/dL in assay [12]; 158.6 mg/dL in [13]. The Activity in [14] was determined as 98.91 mg/dL; in assay [15], 78.1 mg/dL; in assay [16], 95.4 mg/dL; in [17] it was 102.43 mg/dL; in assay [18], 66.14 mg/dL; in [19] it was 44.65 mg/dL. Also, in assay [20], the Activity was 46.34 mg/dL.
